In one assay the test system is ECs (HUVECs). Put plainly: FACS binding of FITC-labeled synthetic peptides to ECs. Details: species or system human. The settings on record: 6 μg FITC labeled peptide, 10^5 ECs, 2 hours. As for the experimental part: Fluorescein labeling of synthetic peptides—Fluorescein Isothiocyanate (FTIC, Pierce, Rockford, Ill.) is an amino-reactive probe that reacts in an alkine environment with primary amines to form a stable fluorescent derivative. 12.5 μl of FITC (10 mg/ml) were added per 1 mg of peptide diluted in 0.5 M bicarbonate buffer (pH 9.5) and agitated in the dark for 2 hours. 0.1 ml of 1.5 M hydroxilamine was then added per 1 ml of reaction mixture and agitated for an additional 30 minutes at room temperature. Unbound FITC was removed by dialysis in the presence of PBS.
Peptide binding to ECs—ECs were cultured in M199 supplemented with 10% FCS. For peptide binding assays, the cells were trypsinized and 10^5 cells were suspended in PBS supplemented with 5% FCS and 0.1% sodium azide. Cells were incubated for 2 hours (on ice, in the dark) in the presence of 1-6 μg of FITC-labeled peptides, following which the stained cells were washed twice with PBS. Samples were analyzed by FACS (FACScan, Becton Dickinson, San Jose, Calif., USA). For control, 0.5×10^6 of PBLs were utilized.
FACS analysis of peptide binding to ECs with and without hypoxia treatment—ECs were exposed to hypoxia conditions and then prepared for FACS analysis as described in Example 3, hereinabove. […] Samples were analyzed by Fluorescence Activated Cell Sorter (FACScan Beckton Dickinson, Calif., USA).
For orientation: In flow cytometry, cells or beads pass a laser one at a time.

The test system of a further assay is HIF-1α. Put plainly: Real time PCR gene expression in MVECs, HIF-1α. Details: key: increased (+); non-increased (−). The settings on record: 1 ng/ml peptide. Type of assay: cell-based. As for the experimental part:
Real Time PCR—MVECs from passage 3 were incubated for 24 hours in EBM-MV supplement-free medium (starving media). Following starvation, 1 ng/ml of synthetic peptides LT, QF, SP, TR, YR, and VL and 10 ng/ml of VEGF were added to the plates. Following 1.5 or 6 hours of incubation, total RNA was extracted using TRIsol reagent (Invitrogen Life Technologies, Carlsbad Calif., USA) and 0.8 μg of the extracted RNA was used as a template for reverse transcription (Invitrogen) using random primers (SuperScript III First-Strand Synthesis System for RT-PCR (hvitrogen, Carlsbad Calif., USA) according to the manufacturer's instructions. Resulting cDNAs were subjected to real time PCR amplification using the ABI prism 7000 Sequence Detection System (Applied Biosystems, Foster City, Calif., USA). Oligonucleotide primers were designed using Primer Express Software (Applied Biosystems, Foster City, Calif., USA) according the translated region of VEGF-A (Accession No:NM_003376), VEGF-C (Accession No:NM_005429), KDR (Accession No:NM_002253), FLT-1 (Accession No:NM_002019), HIF-α (Accession No:HSU22431), and GAPDH (Accession No:NM_002046) and are listed in Table 6, hereinbelow. Briefly, a reaction mixture of 20 μl consisting of DDW, oligonucleotide primers (500 nM), cDNA (3 μl), and SYBR Green PCR master kit (Applied Biosystems, Foster City, Calif., USA) was subjected to an amplification program of 15 seconds at 95° C., and 60 seconds at 60° C. for 40 cycles. Results were analyzed using the Sequence Detector Software Version 1 (Applied Biosystenis).
Peptides effect on gene expression in MVECs—The effect of the synthetic peptides on the expression in MVECs of selected genes (VEGF-A, VEGF-C, KDR, FLT-1 and HIF-1α) related to the VEGF pathway (a major pathway that participated in angiogenic process) was tested. Synthetic peptides were added at 1 ng/ml for 1.5 and 6 hours. After incubation with peptide, RNA was extracted from MVECs and Real Time PCR was performed. Gene expression was calculated as peptide/control (cells without peptide treatment) ratio.
Background: In qPCR the cycle at which signal appears reflects the starting amount.

For the next assay, the system named is rat ischemic hind limb. Put plainly: Rat ischemic hind-limb model, laser-Doppler blood flow. The format is in vivo. The settings on record: 600 μg peptide, days 2, 6, 9 and 13. The procedure:
Rat ischemic hind-limb model and laser-Doppler imager analysis—A rat ischeric hind limb model was used for evaluation of the in vivo potential of angiogenesis induced by the selected synthetic peptides. Ischemia was created in the rat left hind limb by ligation the femoral artery. The right hind limb served as a control. A day after the operation each of the peptides was injected into two sites close to the ligation and one site distal to the ligation. Each rat was treated with each of the peptides in a total amount of 600 μg.
The blood flow was measured using a Laser Doppler Blood Flow analyzer (MoorLDI, Moor Instrument, Wilmington, Del.) at 2, 6, 9 and 13 days after peptides injections. The average perfusion of each limb was computed and blood flow was expressed as the ischemic (left)/control (right) blood flow ratio.

For the sequence “LLADTTHHRPWT (Phage displayed peptide) [LT]”, the “Binding to ECs exposed to hypoxia compared with normoxia” value with ECs (HUVECs) was “increased binding”. In addition, in the assay with HIF-1α, the “HIF Expression after 1.5 hours” value is recorded as “−” and the “HIF Expression after 6 hours” value is “−”.

Consider “QPWLEQAYYSTF (Phage displayed peptide) [QF]”, for which, in the assay on HIF-1α, the “HIF Expression after 1.5 hours” value is listed as “+” and the “HIF Expression after 6 hours” value is “−”. In addition, in the assay with rat ischemic hind limb, the “Median flux of the ischemic leg/control leg” value amounted to 112.5%.

Take SAHGTSTGVPWP (Phage displayed peptide): in the assay on ECs (HUVECs), the “Binding to ECs exposed to hypoxia compared with normoxia” value is listed as “increased binding”.

Turning to “TLPWLEESYWRP (Phage displayed peptide) [TR]”, in the assay with HIF-1α, the “HIF Expression after 1.5 hours” value is “+” and the “HIF Expression after 6 hours” value is given as “+”.

As for “VPWMEPAYQRFL (Phage displayed peptide) [VL]”, in the assay on HIF-1α, the “HIF Expression after 1.5 hours” value was “+” and the “HIF Expression after 6 hours” value was “+”.

“YPHIDSLGHWRR (Phage displayed peptide) [YR]”: the “HIF Expression after 1.5 hours” value in the assay on HIF-1α was “−”. Moreover, the “Median flux of the ischemic leg/control leg” value in the assay on rat ischemic hind limb came out at 108.2%.

The values are drawn from patent US7473682B2, “Angiogenic peptides and uses thereof” (Ramot at Tel Aviv University Ltd., priority 2003, dated 2009).
